# Test results taken from PMC5617738 (Toxicology Reports, 2016).
# pIC50: −log10 of the molar value. Read-outs that look alike come from different tables or passages of the source.
# Experiments:
# [1] = tested on: murine macrophage cells; details: cited from earlier work
# [2] = Solubility in test solution; type: physicochemical; details: solution with a maximum of 1% DMSO
# [3] = tested on: Plasmodium berghei; details: P. berghei infected mice, cited from earlier work
# [4] = tested on: rodent; details: cited from earlier work
# [5] = tested on: HL-7702; details: HL-7702 cells; cited from earlier work
# [6] = tested on: PBMCs; details: read-out: IC50 (toxicity on PBMCs); cited from earlier work
smiles,measurement,setting,value
COc1cc(C=O)ccc1O [vanillin],IC50,[1],645 µg/mL
"O=C1C(O)=C(Nc2ccccc2)C(=O)c2ccccc21 [4a, 2-hydroxy-3-anilino-1,4-naphthoquinone]",Solubility,[2],soluble in the solution with a maximum of 1% DMSO
same,Parasitemia inhibition (%) Day 5,[3]; vs untreated control,53.3%
same,Parasitemia inhibition (%) Day 7,[3]; vs untreated control,18.5%
same,Mean Survival,[3],32.5 ± 6.6 days
same,Parasitemia Day 5,[3]; first Parasitemia column,0.7
same,Parasitemia Day 5,"[3]; second Parasitemia column, head printed Day 5",2.2
"O=C1C=C(O)C(=O)c2ccccc21 [2-hydroxy-1,4-naphthoquinone]",In vivo toxicity,[4],"highly toxic, causing both hemolytic anaemia and renal tubular necrosis"
same,Relative cytotoxicity among six naphthoquinones,[5],less toxic
"Cc1cc(O)c2c(c1F)C(=O)C=CC2=O [8-Fluoro-5-hydroxy-7-methyl-1,4-naphthoquinone]",pIC50,[6],3.72
"Cc1cc(O)c2c(c1)C(=O)C=CC2=O [7-MJ, 5-Hydroxy-7-methyl-1,4-naphthoquinone]",pIC50,[6],4.74
"Cc1cc(O)c2c(c1)C(=O)C(O)=CC2=O [2,5-Dihydroxy-7-methyl-1,4-naphthoquinone]",pIC50,[6],4.27
